Test results from US20050182025A1, “Amidinylphenyl compounds and their use as fungicides” (priority 2002, published 2005).

How the values were obtained:
Format in all cases: in vivo
[1] = system: Erysiphe graminis f. sp. tritici; experiment: Test A: preventive spray on wheat seedlings, wheat powdery mildew, disease rating; conditions: wheat seedlings sprayed to run-off, inoculated the following day with Erysiphe graminis f. sp. tritici, rated after 7 days at 20° C.; test concentration not given
Source text: General protocol for preparing test suspensions: Test compounds were first dissolved in acetone in an amount equal to 3% of the final volume and then suspended at the desired concentration (in ppm) in acetone and purified water (50/50 mix) containing 250 ppm of the surfactant Trem® 014 (polyhydric alcohol esters). The resulting test suspensions were then used in the following tests. Spraying a 200 ppm test suspension to the point of run-off on the test plants was the equivalent of a rate of 500 g/ha. The test suspension was sprayed to the point of run-off on wheat seedlings. The following day the seedlings were inoculated with a spore dust of Erysiphe graminis f. sp. tritici, (the causal agent of wheat powdery mildew) and incubated in a growth chamber at 20° C. for 7 days, after which disease ratings were made. Results for Tests A-C are given in Table A. In the table, a rating of 100 indicates 100% disease control and a rating of 0 indicates no disease control (relative to the controls). A dash (-) indicates no test results.

Septoria nodorum = experiment: Test C: preventive spray on wheat seedlings, Septoria glume blotch, disease rating; conditions: wheat seedlings sprayed to run-off, inoculated the following day with Septoria nodorum, 48 h saturated atmosphere then 9 days at 20° C.; test concentration not given
Source text: (§1) General protocol for preparing test suspensions: Test compounds were first dissolved in acetone in an amount equal to 3% of the final volume and then suspended at the desired concentration (in ppm) in acetone and purified water (50/50 mix) containing 250 ppm of the surfactant Trem® 014 (polyhydric alcohol esters). The resulting test suspensions were then used in the following tests. Spraying a 200 ppm test suspension to the point of run-off on the test plants was the equivalent of a rate of 500 g/ha. The test suspension was sprayed to the point of run-off on wheat seedlings. The following day the seedlings were inoculated with a spore suspension of Septoria nodorum (the causal agent of Septoria glume blotch) and incubated in a saturated atmosphere at 20° C. for 48 h, and then moved to a growth chamber at 20° C. for 9 days, after which disease ratings were made. Results for Tests A-C are given in Table A. In the table, a rating of 100 indicates 100% disease control and a rating of 0 indicates no disease control (relative to the controls). A dash (-) indicates no test results.

Puccinia recondita = experiment: Test B: preventive spray on wheat seedlings, wheat leaf rust, disease rating; conditions: wheat seedlings sprayed to run-off, inoculated the following day with Puccinia recondita, 24 h saturated atmosphere then 6 days at 20° C.; test concentration not given
Source text: as §1, with “Puccinia recondita” for “Septoria nodorum”, “wheat leaf rust)” for “Septoria glume blotch)”, “24” for “48”, “6” for “9”

SMILES	Test A disease control rating (100 = 100% disease control, 0 = no disease control relative to the controls) [1] [%]	Test C disease control rating (100 = 100% disease control, 0 = no disease control relative to the controls) (Septoria nodorum) [%]	Test B disease control rating (100 = 100% disease control, 0 = no disease control relative to the controls) (Puccinia recondita) [%]
Cc1cc(OCCC[Si](C)(C)C)c(C)cc1N=CN(C)C [Compound 26, N′-[2,5-Dimethyl-4-[3-(trimethylsilyl)propoxy]phenyl]-N,N-dimethylmethanimidamide]	98	100	100
Cc1cc(OCCCO[Si](C)(C)C(C)(C)C)c(C)cc1N=CN(C)C [Compound 27]	99	100	100
CCCCC(CCCC)Oc1cc(C)c(N=CN(C)C)cc1C [Compound 28, N′-[4-[(1-Butylpentyl)oxy]-2,5-dimethylphenyl]-N,N-dimethylmethanimidamide]	0	0	97
CCCCC(CCC)Oc1cc(C)c(N=CN(C)C)cc1C (stereo not drawn) [Compound 29]	99	58	100
CCCCCC(CCCCC)Oc1cc(C)c(N=CN(C)C)cc1C [Compound 30]	0	0	100
CCC(CCC(C)C)Oc1cc(C)c(N=CN(C)C)cc1C (stereo not drawn) [Compound 31]	93	53	100
Cc1cc(OC(C)CCC(C)C)c(C)cc1N=CN(C)C (stereo not drawn) [Compound 32]	97	95	100
CCCC(CCC(C)C)Oc1cc(C)c(N=CN(C)C)cc1C (stereo not drawn) [Compound 33]	95	0	100
CCC(CC)Oc1cc(C)c(N=CN(C)C)cc1C [Compound 34]	96	0	100
Cc1cc(OC(CCC(C)C)CCC(C)C)c(C)cc1N=CN(C)C [Compound 35]	95	100	100
CCCC(CCC)Oc1cc(C)c(N=CN(C)C)cc1C [Compound 36]	88	0	100
C=C(COc1cc(C)c(N=CN(C)C)cc1C)C[Si](C)(C)C [Compound 38]	96	20	100
CC(C)=CCCOc1cc(C)c(N=CN(C)C)cc1C [Compound 39]	0	94	100
Cc1cc(OCC=CC(C)(C)C)c(C)cc1N=CN(C)C [Compound 40]	97	100	100
Cc1cc(OCCOC(C)(C)C)c(C)cc1N=CN(C)C [Compound 41]	79	47	99
COC(C)(C)CCCOc1cc(C)c(N=CN(C)C)cc1C [Compound 43]	96	93	100
CCOC(C)(C)CCCOc1cc(C)c(N=CN(C)C)cc1C [Compound 44]	99	99	100
Cc1cc(OCCCC(C)(C)O)c(C)cc1N=CN(C)C [Compound 45]	0	0	80
Cc1cc(OCCCC(C)(Cl)C(C)C)c(C)cc1N=CN(C)C (stereo not drawn) [Compound 46]	97	97	100
Cc1cc(OCCCCC(C)(C)C#N)c(C)cc1N=CN(C)C [Compound 47]	29	80	99
Cc1cc(OCCCCC(C)C)c(C)cc1N=CN(C)C [Compound 48]	99	96	100
Cc1cc(OCCCC(C)C(C)C)c(C)cc1N=CN(C)C (stereo not drawn) [Compound 49]	99	83	99
Cc1cc(OCCCC(C)(C)C)c(C)cc1N=CN(C)C [Compound 50]	99	100	67
CC[Si](C)(C)CCCOc1cc(C)c(N=CN(C)C)cc1C [Compound 51]	96	100	100
CCC[Si](C)(C)CCCOc1cc(C)c(N=CN(C)C)cc1C [Compound 52]	100	99	100
CC[Si](C)(CC)CCCOc1cc(C)c(N=CN(C)C)cc1C [Compound 53]	100	99	100
Cc1cc(OCCC[Si](C)(C)C)c(Cl)cc1N=CN1CCCC1 [Compound 95]	100	100	100
